Test results taken from US20180362580A1, “CRYSTALLINE AND AMORPHOUS FORMS OF CARFILZOMIB” (Mylan Laboratories Limited, priority 2015, published 2018).
Entries after “also recorded” stand apart in the source; their conditions may differ.

Experiment: Long term storage stability of the crystalline form, measured by PXRD
Assay type: physicochemical
Conditions: stored at 2° C. to 8° C. for one year; solid form checked by PXRD
Method: The polymorphs disclosed herein may be characterized by their X-ray powder diffraction (PXRD) patterns. Thus, samples of carfilzomib prepared by processes disclosed herein, including crystalline carfilzomib form M1 and amorphous carfilzomib, were analyzed by PXRD on a BRUKER D-8 DISCOVER powder diffractometer equipped with goniometer of θ/2θ configuration and LYNX EYE detector. The Cu-anode X-ray tube was operated at 40 kV and 30 mA. The experiments were conducted over the 2θ range of 2.0°-50.0°, 0.030° step size, and 0.4 seconds step time.
In some samples, individual impurities were present at levels less than 0.1%.

## CC(C)C[C@H](NC(=O)[C@H](CCc1ccccc1)NC(=O)CN1CCOCC1)C(=O)N[C@@H](Cc1ccccc1)C(=O)N[C@@H](CC(C)C)C(=O)[C@@]1(C)CO1 [crystalline carfilzomib form M1, (2S)-N-((S)-1-((S)-4-methyl-1-((R)-2-methyloxiran-2-yl)-1-oxopentan-2-ylcarbamoyl)-2-phenylethyl)-2-((S)-2-(2-morpholinoacetamido)-4-phenylbutanamido)-4-methylpentanamide]
  stability (measured by PXRD): exhibited stability; also recorded: stable
